In patent US6677357B2, “Rapamycin 29-enols” (Wyeth, priority 2001, dated 2004):
Converted amounts (≈) assume the structure as drawn.

Experiments:
Type in all cases: cell-based
SW620 (colon) = test: Antineoplastic activity, tumor cell growth inhibition (sulforhodamine B), SW620; details: 48 hours; for IC50: Homo sapiens, SW-620, SW620 cells; for Antineoplastic Activity (IC50): SW620 cells
Source text: (§1) Antineoplastic activity for the compounds of this invention was confirmed by evaluating the antineoplastic activity of representative compounds of this invention (Examples 1-5) against six tumor cell lines in vitro. Briefly, tumor cells from six cell lines were placed in wells of a 96 well microtiter plate. The following tumor cell lines were used: 3T3 (ovarian), 3T3/H2N (ovarian—resistant to cis-platin), A431 (vulva epidermoid origin), SW620 (colon), SKBR3 (breast), and MDA-435 (breast). The tumors cells were grown in the presence of serial dilutions of the compound to be evaluated for 48 hours, and cell growth determined using a calorimetric procedure (sulforhrodamine B). The inhibition of growth was calculated compared to the number of cells at the time of test compound addition.

[1] = test system: A431 (vulva epidermoid origin); test: Antineoplastic activity, tumor cell growth inhibition (sulforhodamine B), A431; details: 48 hours; for IC50: Homo sapiens, A-431, A431 cells; for Antineoplastic Activity (IC50): A431 cells
Source text: as §1

[2] = test system: 3T3/H2N (ovarian—resistant to cis-platin); test: Antineoplastic activity, tumor cell growth inhibition (sulforhodamine B), 3T3/H2N; details: 3T3/H2N cells, 48 hours
Source text: as §1

3T3 (ovarian) = test: Antineoplastic activity, tumor cell growth inhibition (sulforhodamine B), 3T3; details: 48 hours; for IC50: Mus musculus, NIH3T3, 3T3 cells; for Antineoplastic Activity (IC50): 3T3 cells
Source text: as §1

SKBR3 (breast) = test: Antineoplastic activity, tumor cell growth inhibition (sulforhodamine B), SKBR3; details: 48 hours; for IC50: Homo sapiens, SK-BR-3, SKBR3 cells; for Antineoplastic Activity (IC50): SKBR3 cells
Source text: as §1

MDA-435 (breast) = test: Antineoplastic activity, tumor cell growth inhibition (sulforhodamine B), MDA-435; details: MDA435 cells, 48 hours
Source text: as §1

SH-SY5Y cells = test: Neurite outgrowth (neuroregeneration) test procedure in SH-SY5Y cells; details: SH-SY5Y cells pretreated with aphidicolin 5 days, mean ± SEM
Source text: The neuroregeneration activity for the compounds of this invention was confirmed in a standard pharmacological test procedure by evaluating rapamycin dialdehyde (Example 1) and rapamycin 29-enol (Example 2), as representative compounds of this invention, against SH-SY5Y cells in vitro [Gold et al., Exp Neurol 147:269-278, 1997]. Briefly, SH-SY5Y cells were placed in 6-well plate treated with aphidicolin for 5 days followed by the test compounds using 6-well plates. For controls, wells were untreated, or treated with nerve growth factor (NGF) alone. Test wells were treated with NGF plus Example 1 and Example 2, or rapamycin. Cells were photographed at 168 hours. Analysis of neuritic lengths was performed on photographic prints using a Houston Instrument HI-PAD digitizing tablet connected to an IBM XT computer with appropriate software (Bioquant IV, R&M Biometrics, Nashville, Tenn.). Mean values for axonal areas were compared using by ANOVA (STATVIEW, Abacus Concepts, Inc., Berkeley, Calif.). The following table summarizes the results that were obtained.

Row | Antineoplastic Activity (IC50) (SW620 (colon)) | Antineoplastic Activity (IC50) [1] | Antineoplastic Activity (IC50) (SKBR3 (breast)) | Antineoplastic Activity (IC50) (MDA-435 (breast)) | Molecule | Antineoplastic Activity (IC50) [2] | Mean Neurite Length after 168 h (SH-SY5Y cells; test compound + NGF) | Antineoplastic Activity (IC50) (3T3 (ovarian)) | other results
1 | – | – | – | – | CO[C@@H]1[C@H](O)C2(C)OOC1([C@H](C)C[C@H](C)/C=C/C=O)O2 (stereo partly drawn) [III, (2E,4S,6R)-6-[(5S,6R)-5-Hydroxy-6-methoxy-4-methyl-2,3,7-trioxabicyclo[2.2.1]hept-1-yl]-4-methylhept-2-enal] | – | – | – | IC50 (SW620 (colon)): > 5 µg/mL; IC50 [1]: 3.01 µg/mL (≈ 10.5 µM); IC50 [2]: > 5 µg/mL; IC50 (3T3 (ovarian)): 4.11 µg/mL (≈ 14.4 µM); IC50 (SKBR3 (breast)): 2.05 µg/mL (≈ 7.16 µM); IC50 (MDA-435 (breast)): 4.13 µg/mL (≈ 14.4 µM)
2 | >5 µg/mL | >5 µg/mL | >5 µg/mL | >5 µg/mL | Rapamycin 29-enol [Example II] | >5 µg/mL | 239.7 ± 10.0 (n = 155) μm | >5 µg/mL | –
3 | – | – | – | – | CO[C@@H](C[C@@H]1CC[C@@H](C)[C@](O)(C(=O)C(=O)N2CCCC[C@H]2C(=O)O[C@@H](CC(=O)[C@H](C)/C=C(\C)[C@@H](O)[C@@H](OC)C(=O)[C@H](C)C[C@H](C)/C=C/C=O)[C@H](C)CC2CC[C@@H](O)[C@H](OC)C2)O1)/C(C)=C/C=O (stereo partly shown) [Example I, Rapamycin Dialdehyde] | – | 229.8 ± 9.5 (n = 141) μm | – | IC50 (SW620 (colon)): 1.41 µg/mL (≈ 1.49 µM); IC50 [1]: 0.91 µg/mL (≈ 0.962 µM); IC50 [2]: 0.68 µg/mL (≈ 0.719 µM); IC50 (3T3 (ovarian)): 0.72 µg/mL (≈ 0.761 µM); IC50 (SKBR3 (breast)): 0.52 µg/mL (≈ 0.55 µM); IC50 (MDA-435 (breast)): 1.23 µg/mL (≈ 1.3 µM)
4 | – | – | – | – | CO[C@H]1C[C@@H]2CC[C@@H](C)[C@@](O)(O2)C(=O)C(=O)N2CCCC[C@H]2C(=O)O[C@H]([C@H](C)C[C@@H]2CC[C@@H](O)[C@H](OC)C2)CC(=O)[C@H](C)/C=C(\C)[C@@H](O)[C@@H](OC)C(=O)[C@H](C)C[C@H](C)/C=C/C=C/C=C/1C [Rapamycin] | – | 261.4 ± 13.1 (n = 119) μm | – | –
5 | >5 µg/mL | >5 µg/mL | 2.69 µg/mL | >5 µg/mL | 42-O-(2-Hydroxy)ethyl rapamycin 29-enol [V] | 4.96 µg/mL | – | >5 µg/mL | –
6 | 3.04 µg/mL | 2.64 µg/mL | 0.36 µg/mL | 1.1 µg/mL | 42-O-(2-Hydroxy)ethyl rapamycin dialdehyde [IV] | 0.72 µg/mL | – | 1.5 µg/mL | –
7 | – | – | – | – | NGF: nerve growth factor (NGF), used alone as control and together with test compounds | – | – | – | Mean Neurite Length after 168 h (SH-SY5Y cells; NGF alone): 196.5 ± 7.7 (n = 112) μm
